{
  "source": "patent US20250316361A1",
  "about": "“SYSTEMS AND METHODS FOR ESTIMATING, FROM FOOD FREQUENCY QUESTIONNAIRE BASED NUTRIENTS INTAKE DATA, THE RELATIVE AMOUNTS OF FAECALIBACTERIUM PRAUSNITZII (FPRAU) IN THE GUT MICROBIOME ECOSYSTEM AND ASSOCIATED RECOMMENDATIONS TO IMPROVE FAECALIBACTERIUM PRAUSNITZII” (SOCIETE DES PRODUITS NESTLE S.A., priority 2021, published 2025)",
  "key": {"[1]": {"tested_on": "Faecalibacterium ASVs (ASV6)", "test": "in vitro stool fermentation, 16S microbial rRNA gene sequencing of Faecalibacterium ASVs", "type": "cell-based, Faecalibacterium prausnitzii", "protocol": "(§1) Stool samples were collected from a healthy adult donor under human study protocol. Upon the reception of the stool samples, small aliquots were prepared with storage buffer (PBS and 10% glycerol) and were stored at −80 degrees Celsius before use. For each experiment, 250 μL of stool aliquot was inoculated in a 10 mL Hungate tube filled with a minimal bacteria culture media under a strict anaerobic condition (Oxygen <3 ppm) inside of an anaerobic chamber. Different nutrients or nutrient combinations, shown in Table 1, were added to the culture media at time 0 and the tubes were incubated at 37 degrees Celsius for 24 or 48 hours. The growth of Faecalibacterium prausnitzii (F. prau) was examined by two methods: quantitative PCR specifically targeting F. prau and 16S microbial rRNA gene sequencing.\nF. prau is heterogenic and genetically diverse. Thus, in this next experiment, we examined if nutrient or nutrient combinations favor specific F. prau to grow in a mixed community."}, "[2]": {"tested_on": "Faecalibacterium prausnitzii (F. prau)", "test": "in vitro stool fermentation, quantitative PCR specifically targeting F. prau", "type": "cell-based", "settings": "stool inoculum in minimal media, anaerobic, 37 degrees Celsius", "protocol": "as §1\nFirst, we examined the absolute quantity of F. prau in the community after 24 or 48 hours (FIGS. 6A and 6B)."}},
  "data": [
    {"substance": "inulin", "values": [
      {"measurement": "response of Faecalibacterium ASV1, 6, 9, 12 and 13", "setting": "[1]; 14 genetically different Faecalibacterium found, time not stated", "value": "responded positively"},
      {"measurement": "response of F. prau ASV6 (figure legend)", "setting": "[1]; samples collected after 24 hours and after 48 hours, FIG. 7", "value": "responded"},
      {"measurement": "absolute quantity of F. prau in the community versus control", "setting": "[2]; 24 hours, FIG. 6A", "value": "at least twice as much as control"},
      {"measurement": "absolute quantity of F. prau in the community", "setting": "[2]; 48 hours, FIG. 6B", "value": "able to maintain a high amount of F. prau"}
    ]}
  ]
}
